Measurements reported in ChEMBL document CHEMBL5365431 (J Med Chem, 2023).
Activity calls are given as the source filed them. No cut-off for these calls is given here.

Columns and labels:
[1] = Selectivity index, ratio of IC50 for antiproliferative activity against human UWB1289 cells harboring wild type BRCA1 to IC50 for antiproliferative activity against HR-deficient human UWB1289 cells harboring BRCA1 mutant; assay type: functional
[2] = Selectivity index, ratio of IC50 for antiproliferative activity against human PARP1 knockout Talazoparib-resistant CAPAN-1 cells to IC50 for antiproliferative activity against human Talazoparib-resistant CAPAN-1 cells; assay type: functional
[3] = system: CAPAN-1; settings: Homo sapiens, dose 10.0 nM, time 4.5 hrs
[4] = biological target: Protein mono-ADP-ribosyltransferase PARP12 (Homo sapiens, UniProt Q9H0J9); test: Inhibition of PARP12 (unknown origin) using biotinylated NAD+ as substrate by luminescence assay
Protein mono-ADP-ribosyltransferase PARP12, sequence (Q9H0J9 whole entry): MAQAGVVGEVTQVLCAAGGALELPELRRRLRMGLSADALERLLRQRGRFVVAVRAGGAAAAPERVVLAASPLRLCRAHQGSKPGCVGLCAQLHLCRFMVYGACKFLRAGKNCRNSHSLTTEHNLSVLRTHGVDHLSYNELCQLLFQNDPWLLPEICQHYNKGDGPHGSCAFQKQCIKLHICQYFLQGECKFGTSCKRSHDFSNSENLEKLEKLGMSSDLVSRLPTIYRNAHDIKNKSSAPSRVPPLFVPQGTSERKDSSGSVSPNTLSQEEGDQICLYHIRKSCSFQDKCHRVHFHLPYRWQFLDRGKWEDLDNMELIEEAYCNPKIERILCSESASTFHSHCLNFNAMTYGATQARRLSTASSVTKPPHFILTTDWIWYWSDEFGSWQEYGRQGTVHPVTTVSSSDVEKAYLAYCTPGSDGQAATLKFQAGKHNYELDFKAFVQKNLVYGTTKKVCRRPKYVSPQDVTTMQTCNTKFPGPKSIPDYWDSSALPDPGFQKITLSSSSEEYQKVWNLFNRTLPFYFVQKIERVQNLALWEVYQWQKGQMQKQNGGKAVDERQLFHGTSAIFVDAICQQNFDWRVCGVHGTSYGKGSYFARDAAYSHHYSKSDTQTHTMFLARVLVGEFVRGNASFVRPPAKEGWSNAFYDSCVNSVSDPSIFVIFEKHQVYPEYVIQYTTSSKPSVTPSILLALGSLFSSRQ

[5] = biological target: Protein mono-ADP-ribosyltransferase TIPARP (Homo sapiens, UniProt Q7Z3E1); test: Inhibition of PARP7 (unknown origin) using biotinylated NAD+ as substrate by luminescence assay
Protein mono-ADP-ribosyltransferase TIPARP, sequence (Q7Z3E1 whole entry): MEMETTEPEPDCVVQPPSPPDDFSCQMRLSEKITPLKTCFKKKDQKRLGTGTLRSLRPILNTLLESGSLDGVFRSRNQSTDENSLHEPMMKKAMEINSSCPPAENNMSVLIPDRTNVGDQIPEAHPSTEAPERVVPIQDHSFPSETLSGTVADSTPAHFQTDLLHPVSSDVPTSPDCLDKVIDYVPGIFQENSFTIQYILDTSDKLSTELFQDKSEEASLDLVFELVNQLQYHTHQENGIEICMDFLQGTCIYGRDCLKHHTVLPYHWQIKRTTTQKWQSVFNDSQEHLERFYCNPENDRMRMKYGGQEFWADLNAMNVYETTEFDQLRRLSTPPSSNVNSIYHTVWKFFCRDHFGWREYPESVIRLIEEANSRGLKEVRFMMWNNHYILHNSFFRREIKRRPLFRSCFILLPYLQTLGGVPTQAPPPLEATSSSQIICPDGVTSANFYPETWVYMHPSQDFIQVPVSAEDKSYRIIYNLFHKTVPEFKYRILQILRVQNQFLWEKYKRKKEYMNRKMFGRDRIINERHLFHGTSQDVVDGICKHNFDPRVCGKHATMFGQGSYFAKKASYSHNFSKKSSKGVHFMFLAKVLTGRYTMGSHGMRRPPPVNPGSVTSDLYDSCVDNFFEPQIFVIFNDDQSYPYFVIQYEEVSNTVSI

[6] = system: CAPAN-1; test: Antitumor activity against human Talazoparib-resistant CAPAN-1 cells xenografted in BALB/c mouse assessed as tumor growth inhibition by measuring T/C ratio at 12.5 mg/kg,po QD for 21 days relative to control; assay type: functional; parameters: scale not given: the % may be the effect or the level left; settings: time 21 day
[7] = Antiproliferative activity against human Olaparib-resistant CAPAN-1 cells assessed as cell proliferation inhibition incubated for 7 days by SRB assay; assay type: functional, cell-based
[8] = Antiproliferative activity against human Olaparib-resistant MDA-MB-436 cells assessed as cell proliferation inhibition incubated for 7 days by CCK-8 assay; assay type: functional, cell-based
[9] = biological target: Protein mono-ADP-ribosyltransferase PARP15 (Homo sapiens, UniProt Q460N3); test: Inhibition of PARP15 (unknown origin) using biotinylated NAD+ as substrate by luminescence assay
[10] = system: HCC1937; test: Antiproliferative activity against HR-deficient human HCC1937 cells harboring BRCA1 mutant assessed as cell proliferation inhibition incubated for 7 days by SRB assay; assay type: functional, cell-based
[11] = organism: Mus musculus; settings: BALB/c, dose 12.5-25 mg/kg, route po, time 21.0 day
[12] = biological target: Poly [ADP-ribose] polymerase tankyrase-1 (Homo sapiens, UniProt O95271)
[13] = Antiproliferative activity against human Talazoparib-resistant MDA-MB-436 cells assessed as cell proliferation inhibition incubated for 7 days by CCK-8 assay; assay type: functional, cell-based, Talazoparib-resistant MDA-MB-436 cell
[14] = system: WI-38; test: Antiproliferative activity against human WI-38 cells assessed as cell proliferation inhibition incubated for 7 days by SRB assay; assay type: functional, cell-based
[15] = system: CAPAN-1; settings: Homo sapiens, dose 10.0 nM, time 4.5 hrs; remark: listed apart in the source
[16] = biological target: Protein mono-ADP-ribosyltransferase PARP10 (Homo sapiens, UniProt Q53GL7); test: Inhibition of PARP10 (unknown origin) using biotinylated NAD+ as substrate by luminescence assay
[17] = system: CAPAN-1; test: Antiproliferative activity against human Talazoparib-resistant CAPAN-1 cells assessed as cell proliferation inhibition incubated for 7 days by SRB assay; assay type: functional, cell-based
[18] = Toxicity in BALB/c mouse xenografted with human Olaparib-resistant MDA-MB-436 cells assessed as body weight at 12.5 to 25 mg/kg,po QD for 27 days; assay type: organism-based; settings: in vivo, 648 h, dose 12.5-25 mg/kg, time 27 day
[19] = biological target: Poly [ADP-ribose] polymerase tankyrase-2 (Homo sapiens, UniProt Q9H2K2); test: Inhibition of PARP5B (unknown origin) using biotinylated NAD+ as substrate by luminescence assay
Poly [ADP-ribose] polymerase tankyrase-2, sequence (Q9H2K2 whole entry): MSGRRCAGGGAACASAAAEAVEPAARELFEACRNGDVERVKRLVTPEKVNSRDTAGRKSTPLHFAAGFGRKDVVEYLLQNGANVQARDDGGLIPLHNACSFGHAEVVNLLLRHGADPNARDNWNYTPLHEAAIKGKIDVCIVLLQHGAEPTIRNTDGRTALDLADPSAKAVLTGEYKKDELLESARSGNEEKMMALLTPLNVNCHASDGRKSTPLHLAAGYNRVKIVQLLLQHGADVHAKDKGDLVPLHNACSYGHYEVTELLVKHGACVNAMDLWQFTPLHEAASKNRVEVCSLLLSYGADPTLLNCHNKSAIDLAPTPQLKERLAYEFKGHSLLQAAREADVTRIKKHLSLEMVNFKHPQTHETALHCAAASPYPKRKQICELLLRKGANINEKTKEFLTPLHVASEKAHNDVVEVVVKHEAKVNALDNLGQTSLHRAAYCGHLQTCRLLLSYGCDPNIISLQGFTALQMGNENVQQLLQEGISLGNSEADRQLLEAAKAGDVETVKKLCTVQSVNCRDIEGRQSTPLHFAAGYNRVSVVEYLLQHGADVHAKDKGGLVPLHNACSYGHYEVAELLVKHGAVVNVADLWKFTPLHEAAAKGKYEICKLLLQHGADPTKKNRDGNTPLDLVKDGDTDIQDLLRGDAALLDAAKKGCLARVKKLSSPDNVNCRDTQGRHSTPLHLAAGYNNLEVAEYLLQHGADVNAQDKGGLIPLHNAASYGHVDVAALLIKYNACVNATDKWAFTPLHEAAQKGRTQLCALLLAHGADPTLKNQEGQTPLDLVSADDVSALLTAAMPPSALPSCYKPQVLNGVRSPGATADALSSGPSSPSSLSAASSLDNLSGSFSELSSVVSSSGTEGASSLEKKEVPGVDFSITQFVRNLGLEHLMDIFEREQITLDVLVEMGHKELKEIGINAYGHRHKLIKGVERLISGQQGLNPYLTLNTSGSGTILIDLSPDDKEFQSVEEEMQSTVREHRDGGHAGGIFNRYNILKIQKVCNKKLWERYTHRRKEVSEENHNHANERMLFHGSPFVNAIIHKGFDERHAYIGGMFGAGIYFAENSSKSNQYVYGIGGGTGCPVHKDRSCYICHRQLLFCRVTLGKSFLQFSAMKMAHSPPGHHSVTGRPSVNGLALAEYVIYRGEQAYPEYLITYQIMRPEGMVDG

[20] = biological target: Protein mono-ADP-ribosyltransferase PARP11 (Homo sapiens, UniProt Q9NR21); test: Inhibition of PARP11 (unknown origin) using biotinylated NAD+ as substrate by luminescence assay
Protein mono-ADP-ribosyltransferase PARP11, sequence (Q9NR21 whole entry): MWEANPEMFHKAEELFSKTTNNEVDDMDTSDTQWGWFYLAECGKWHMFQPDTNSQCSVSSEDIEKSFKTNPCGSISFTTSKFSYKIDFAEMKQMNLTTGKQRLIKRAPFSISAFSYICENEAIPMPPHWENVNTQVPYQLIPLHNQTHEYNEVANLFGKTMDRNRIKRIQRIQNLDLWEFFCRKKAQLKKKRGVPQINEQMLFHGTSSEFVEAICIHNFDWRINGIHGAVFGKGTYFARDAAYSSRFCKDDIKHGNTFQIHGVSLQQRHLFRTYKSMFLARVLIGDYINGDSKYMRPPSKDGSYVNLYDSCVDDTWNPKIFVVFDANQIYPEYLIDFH

[21] = organism: Mus musculus; settings: BALB/c, dose 12.5-25 mg/kg, route po, time 21.0 day; remark: listed apart in the source
[22] = Selectivity index, ratio of IC50 for antiproliferative activity against Chinese hamster V79 cells harboring wild type BRCA2 to IC50 for antiproliferative activity against Chinese hamster V-C8 cells harboring BRCA2 mutant; assay type: functional, Cricetulus griseus
[23] = Stabilization of human His-tagged PARP1-DNA complex assessed as increase in fluorescence signal incubated for 60 mins using NAD+ as substrate by DSB fluorescence polarization assay
[24] = biological target: Protein mono-ADP-ribosyltransferase PARP4 (Homo sapiens, UniProt Q9UKK3); test: Inhibition of PARP4 (unknown origin) using biotinylated NAD+ as substrate by luminescence assay
[25] = system: MDA-MB-436; test: Antiproliferative activity against HR-deficient human MDA-MB-436 cells harboring BRCA1 mutant assessed as cell proliferation inhibition incubated for 7 days by SRB assay; assay type: functional, cell-based
[26] = system: U2OS; test: Inhibition of homologous recombination repair activity in human PARP1 knockout U2OS cells expressing direct repeat-GFP reporter gene transfected with pCBA-ISceI plasmid at 1 uM incubated for 48 hrs by flow cytometry; assay type: functional
[27] = system: IMR-90; test: Antiproliferative activity against human IMR-90 cells assessed as cell proliferation inhibition incubated for 7 days by SRB assay; assay type: functional, cell-based
[28] = Antiproliferative activity against HR-deficient human UWB1289 cells harboring BRCA1 mutant assessed as cell proliferation inhibition incubated for 7 days by SRB assay; assay type: functional, cell-based
[29] = organism: Mus musculus; settings: BALB/c, dose 12.5-25 mg/kg, route po, time 21.0 day; remark: listed apart in the source
[30] = biological target: Protein mono-ADP-ribosyltransferase PARP14 (Homo sapiens, UniProt Q460N5); test: Inhibition of PARP14 (unknown origin) using biotinylated NAD+ as substrate by luminescence assay
[31] = biological target: Poly [ADP-ribose] polymerase 1 (Homo sapiens, UniProt P09874); test: Inhibition of PARP1 (unknown origin) using histone as substrate by ELISA
Poly [ADP-ribose] polymerase 1, sequence (P09874 whole entry): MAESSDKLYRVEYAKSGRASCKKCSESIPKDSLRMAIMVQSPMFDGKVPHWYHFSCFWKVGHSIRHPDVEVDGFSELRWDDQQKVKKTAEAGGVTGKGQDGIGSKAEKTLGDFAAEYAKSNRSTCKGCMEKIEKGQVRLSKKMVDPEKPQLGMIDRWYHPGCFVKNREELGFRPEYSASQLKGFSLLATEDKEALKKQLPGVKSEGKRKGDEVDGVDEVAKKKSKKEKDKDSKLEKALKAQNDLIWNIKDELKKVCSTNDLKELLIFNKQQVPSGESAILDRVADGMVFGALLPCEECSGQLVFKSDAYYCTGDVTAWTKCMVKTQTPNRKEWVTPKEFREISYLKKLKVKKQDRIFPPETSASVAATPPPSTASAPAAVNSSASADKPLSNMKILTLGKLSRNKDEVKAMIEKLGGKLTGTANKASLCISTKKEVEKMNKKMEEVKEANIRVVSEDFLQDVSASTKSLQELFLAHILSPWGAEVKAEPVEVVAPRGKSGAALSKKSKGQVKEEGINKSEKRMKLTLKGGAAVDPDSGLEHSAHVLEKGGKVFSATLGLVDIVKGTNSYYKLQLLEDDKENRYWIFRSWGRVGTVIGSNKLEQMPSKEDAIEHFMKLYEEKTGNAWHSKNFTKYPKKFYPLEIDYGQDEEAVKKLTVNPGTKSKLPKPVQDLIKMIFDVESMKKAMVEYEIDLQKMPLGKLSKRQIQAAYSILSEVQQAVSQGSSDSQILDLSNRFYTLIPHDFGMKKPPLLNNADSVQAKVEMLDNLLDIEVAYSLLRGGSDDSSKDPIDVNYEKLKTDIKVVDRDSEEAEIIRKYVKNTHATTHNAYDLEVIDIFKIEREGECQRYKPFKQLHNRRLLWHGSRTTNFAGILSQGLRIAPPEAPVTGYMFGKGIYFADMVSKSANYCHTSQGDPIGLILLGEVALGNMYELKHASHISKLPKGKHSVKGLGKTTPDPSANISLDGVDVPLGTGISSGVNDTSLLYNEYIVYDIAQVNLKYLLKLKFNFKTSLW

[32] = biological target: Protein mono-ADP-ribosyltransferase PARP3 (Homo sapiens, UniProt Q9Y6F1); test: Inhibition of PARP3 (unknown origin) using biotinylated NAD+ as substrate by luminescence assay
Protein mono-ADP-ribosyltransferase PARP3, sequence (Q9Y6F1 whole entry): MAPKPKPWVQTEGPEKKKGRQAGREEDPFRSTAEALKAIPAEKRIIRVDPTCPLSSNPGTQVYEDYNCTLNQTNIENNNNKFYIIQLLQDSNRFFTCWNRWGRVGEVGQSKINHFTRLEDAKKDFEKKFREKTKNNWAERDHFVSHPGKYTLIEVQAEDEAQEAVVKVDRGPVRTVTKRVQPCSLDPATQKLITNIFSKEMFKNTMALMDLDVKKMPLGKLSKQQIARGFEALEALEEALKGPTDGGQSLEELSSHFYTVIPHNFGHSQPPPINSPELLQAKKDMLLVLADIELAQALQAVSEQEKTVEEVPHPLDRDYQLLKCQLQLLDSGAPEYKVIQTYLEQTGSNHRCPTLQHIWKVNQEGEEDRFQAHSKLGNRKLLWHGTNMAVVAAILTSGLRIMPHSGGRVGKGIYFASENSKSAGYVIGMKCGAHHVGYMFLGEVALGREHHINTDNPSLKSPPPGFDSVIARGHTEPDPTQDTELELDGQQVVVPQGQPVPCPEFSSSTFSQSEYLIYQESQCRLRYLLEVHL

[33] = Antiproliferative activity against Chinese hamster V-C8 cells harboring BRCA2 mutant assessed as cell proliferation inhibition incubated for 7 days by SRB assay; assay type: functional, cell-based; settings: Cricetulus griseus
[34] = biological target: Protein mono-ADP-ribosyltransferase PARP6 (Homo sapiens, UniProt Q2NL67); test: Inhibition of PARP6 (unknown origin) using biotinylated NAD+ as substrate by luminescence assay
[35] = Clearance in Sprague-Dawley rat at 5 mg/kg, iv and measured upto 24 hrs; assay type: ADME, organism-based; settings: in vivo
[36] = system: HCT-15; test: Antiproliferative activity against HR-deficient human HCT-15 cells harboring BRCA2 mutant assessed as cell proliferation inhibition incubated for 7 days by SRB assay; assay type: functional, cell-based
[37] = system: U2OS; test: Inhibition of homologous recombination repair activity in human U2OS cells expressing direct repeat-GFP reporter gene transfected with pCBA-ISceI plasmid at 1 uM incubated for 48 hrs by flow cytometry; assay type: functional
[38] = biological target: Poly [ADP-ribose] polymerase 2 (Homo sapiens, UniProt Q9UGN5); test: Inhibition of PARP2 (unknown origin) using histone as substrate by ELISA
Poly [ADP-ribose] polymerase 2, sequence (Q9UGN5 whole entry): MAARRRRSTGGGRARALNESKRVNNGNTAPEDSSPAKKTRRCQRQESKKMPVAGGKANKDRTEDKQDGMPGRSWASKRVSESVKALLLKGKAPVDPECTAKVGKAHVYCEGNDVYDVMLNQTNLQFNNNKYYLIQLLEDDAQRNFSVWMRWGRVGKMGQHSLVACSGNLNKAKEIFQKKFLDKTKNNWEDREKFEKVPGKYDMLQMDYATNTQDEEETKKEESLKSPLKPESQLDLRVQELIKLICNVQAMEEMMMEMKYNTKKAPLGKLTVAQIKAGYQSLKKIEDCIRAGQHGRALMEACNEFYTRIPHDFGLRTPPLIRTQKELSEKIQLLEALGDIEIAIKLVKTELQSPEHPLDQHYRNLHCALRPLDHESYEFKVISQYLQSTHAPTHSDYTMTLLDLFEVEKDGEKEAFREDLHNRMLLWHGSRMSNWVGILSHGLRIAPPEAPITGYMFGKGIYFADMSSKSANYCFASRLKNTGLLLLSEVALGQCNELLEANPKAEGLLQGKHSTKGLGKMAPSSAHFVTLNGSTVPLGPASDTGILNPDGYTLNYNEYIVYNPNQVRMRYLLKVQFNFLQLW

[39] = Antiproliferative activity against human Olaparib-resistant U-251 cells assessed as cell proliferation inhibition incubated for 7 days by SRB assay; assay type: functional, cell-based
[40] = system: CAPAN-1; test: Antiproliferative activity against human CAPAN-1 cells assessed as cell proliferation inhibition incubated for 7 days by SRB assay; assay type: functional, cell-based
[41] = system: U-251; test: Antiproliferative activity against human Talazoparib-resistant U-251 cells assessed as cell proliferation inhibition incubated for 7 days by SRB assay; assay type: functional, cell-based
[42] = Half life in Sprague-Dawley rat at 5 mg/kg, iv and measured upto 24 hrs; assay type: ADME, organism-based; settings: in vivo
[43] = Antitumor activity against human Olaparib-resistant MDA-MB-436 cells xenografted in BALB/c mouse assessed as tumor growth inhibition by measuring T/C ratio at 12.5 mg/kg,po QD for 27 days relative to control; assay type: functional; parameters: scale not given: the % may be the effect or the level left; settings: time 27 day
[44] = system: CAPAN-1; test: Antitumor activity against human Talazoparib-resistant CAPAN-1 cells xenografted in BALB/c mouse assessed as tumor growth inhibition by measuring T/C ratio at 25 mg/kg,po QD for 21 days relative to control; assay type: functional; parameters: scale not given: the % may be the effect or the level left; settings: time 21 day
[45] = Antitumor activity against human Olaparib-resistant MDA-MB-436 cells xenografted in BALB/c mouse assessed as tumor growth inhibition by measuring T/C ratio at 25 mg/kg,po QD for 27 days relative to control; assay type: functional; parameters: scale not given: the % may be the effect or the level left; settings: time 27 day
[46] = system: V79; test: Antiproliferative activity against Chinese hamster V79 cells harboring wild type BRCA2 assessed as cell proliferation inhibition incubated for 7 days by SRB assay; assay type: functional, cell-based; settings: Cricetulus griseus
[47] = Antiproliferative activity against human UWB1289 cells harboring wild type BRCA1 assessed as cell proliferation inhibition incubated for 7 days by SRB assay; assay type: functional, cell-based

Structure (SMILES): O=C(c1cc(Cc2n[nH]c(=O)c3ccccc23)ccc1F)N1CCn2c(nnc2-c2ccc(Br)o2)C1
- Ratio IC50 [1]: 17
- Ratio IC50 [2]: 19
- inhibition [3]: Active
- IC50 [4]: 14.1 nM
- IC50 [5]: 7.3 nM
- Activity [6]: 48.92%
- IC50 [7]: 0.89 nM
- IC50 [8]: 1.97 nM
- IC50 [9]: 51600 nM
- IC50 [10]: 4.54 nM
- inhibition [11]: Active
- IC50 [12]: 3.8 nM
- IC50 [13]: 1.97 nM
- IC50 [14]: 530 nM
- inhibition [15]: Active
- IC50 [16]: 10.8 nM
- IC50 [17]: 1.13 nM
- Activity [18]: Non-Toxic
- IC50 [19]: 12.4 nM
- IC50 [20]: 2170 nM
- inhibition [21]: Active
- Ratio IC50 [22]: 25
- EC50 [23]: 5.55 nM
- IC50 [24]: 1 nM
- IC50 [25]: 0.52 nM
- inhibition (INH) [26]: 50%
- IC50 [27]: 1240 nM
- IC50 [28]: 0.02 nM
- inhibition [29]: Active
- IC50 [30]: 35900 nM
- IC50 [31]: < 0.001 nM
- IC50 [32]: 1.1 nM
- IC50 [33]: 1.19 nM
- IC50 [34]: 9.5 nM
- clearance [35]: 24.5 mL/min/kg
- IC50 [36]: 44.2 nM
- inhibition (INH) [37]: 95%
- IC50 [38]: 0.001 nM
- IC50 [39]: 1.97 nM
- IC50 [40]: 0.1 nM
- IC50 [41]: 1.97 nM
- half-life [42]: 3.25 h
- Activity [43]: 36.74%
- Activity [44]: 13.87%
- Activity [45]: 15.29%
- IC50 [46]: 29.3 nM
- IC50 [47]: 0.34 nM
